According to patent publication US20170042151A1, “SAFENED HERBICIDAL COMPOSITIONS COMPRISING PYRIDINE CARBOXYLIC ACIDS” (Dow AgroSciences LLC, priority 2015, published 2017):

Columns and labels:
Assay type in all cases: in vivo
[1] = test system: TRZAW = Triticum aestivum (winter wheat); assay: Greenhouse post-emergence phytotoxicity (% visual injury) on wheat
Method: (§1) In addition, the efficacy of the herbicidal composition on wild mustard (SINAR), wild chamomile (MATCH), wild pansy (VIOTR), shepherd's purse ([…]), pigweed (AMARE), and Canada thistle (CIRAR) was evaluated. […] When required to ensure good germination and healthy plants, a fungicide treatment and/or other chemical or physical treatment was applied. The plants were grown for 7-36 days (d) in a greenhouse with an approximate 14-hour (h) photoperiod which was maintained at about 18° C. during the day and 17° C. during the night. Nutrients and water were added on a regular basis and supplemental lighting was provided with overhead metal halide 1000-Watt lamps as necessary. The plants were employed for testing when they reached the second or third true leaf stage. Weighed amounts of technical material were dissolved in a volume of 97:3 volume per volume (v/v) acetone/dimethyl sulfoxide (DMSO) to stock solutions. […] Stock solutions of the safeners were prepared following the same procedure. […] Control plants were sprayed in the same manner with the solvent blank. The treated plants and control plants were placed in a greenhouse as described above and watered by sub-irrigation to prevent wash-off of the test compounds. […] Colby's equation was used to determine the herbicidal effects expected from the mixtures.

[2] = test system: HORVS = Hordeum vulgare (spring barley); assay: Greenhouse post-emergence phytotoxicity (% visual injury) on spring barley
Method: as §1

[3] = test system: AMARE = Amaranthus retroflexus (pigweed); assay: Greenhouse post-emergence efficacy (% visual injury) on pigweed; conditions: 20-22 d
Method: (§2) The herbicide of formula I-G-A was combined with isoxadifen-ethyl or mefenpyr-diethyl, and applied to spring wheat (TRZAS) and spring barley (HORVS) and the phytotoxicity of the herbicidal composition was measured. In addition, the efficacy of the herbicidal composition on wild mustard (SINAR), wild chamomile (MATCH), wild pansy (VIOTR), shepherd's purse (CAPBP), kochia (KCHSC), lambsquarters (CHEAL), pigweed (AMARE), and Canada thistle (CIRAR) was evaluated. The results for herbicide I-G-A with isoxadifen-ethyl and mefenpyr-diethyl are summarized in Table 7 and Table 8, respectively.
(§3) Seeds of the desired test plant species were planted in Sun Gro MetroMix® 360 planting mixture, which typically has a pH of 6.0 to 6.8 and an organic matter content of about 30 percent, in plastic pots with a surface area of 103.2 square centimeters (cm^2). When required to ensure good germination and healthy plants, a fungicide treatment and/or other chemical or physical treatment was applied. The plants were grown for 7-36 days (d) in a greenhouse with an approximate 14-hour (h) photoperiod which was maintained at about 18° C. during the day and 17° C. during the night. Nutrients and water were added on a regular basis and supplemental lighting was provided with overhead metal halide 1000-Watt lamps as necessary. The plants were employed for testing when they reached the second or third true leaf stage.
(§4) Weighed amounts of technical material were dissolved in a volume of 97:3 volume per volume (v/v) acetone/dimethyl sulfoxide (DMSO) to stock solutions. […] Compound requirements are based upon a 12 milliliter (mL) application volume at a rate of 187 liters per hectare (L/ha). Stock solutions of the safeners were prepared following the same procedure. Spray solutions of the safeners and experimental compound mixtures were prepared by adding the stock solutions to the appropriate amount of dilution solution to form a 12 mL spray solution in two-way combinations. Formulated compounds were applied to the plant material with an overhead Mandel track sprayer equipped with 8002E nozzles calibrated to deliver 187 L/ha over an application area of 0.503 square meters (m^2) at a spray height of 18 inches (43 centimeters (cm)) above average plant canopy. Control plants were sprayed in the same manner with the solvent blank.
(§5) The treated plants and control plants were placed in a greenhouse as described above and watered by sub-irrigation to prevent wash-off of the test compounds. After 20-22 d, the condition of the test plants as compared with that of the control plants was determined visually and scored on a scale of 0 to 100 percent where 0 corresponds to no injury and 100 corresponds to complete kill. Colby's equation was used to determine the herbicidal effects expected from the mixtures.

[4] = test system: CIRAR = Cirsium arvense (Canada thistle); assay: Greenhouse post-emergence efficacy (% visual injury) on Canada thistle; conditions: 20-22 d
Method: as §2, §3, §4, §5

[5] = test system: CAPBP = Capsella bursa-pastoris (shepherd's purse); assay: Greenhouse post-emergence efficacy (% visual injury) on shepherd's purse; conditions: 20-22 d
Method: as §2, §3, §4, §5

[6] = test system: VIOTR = Viola tricolor (wild pansy); assay: Greenhouse post-emergence efficacy (% visual injury) on wild pansy; conditions: 20-22 d
Method: as §2, §3, §4, §5

[7] = test system: KCHSC = Kochia scoparia (kochia); assay: Greenhouse post-emergence efficacy (% visual injury) on kochia; conditions: 20-22 d
Method: as §2, §3, §4, §5

[8] = test system: CHEAL = Chenopodium album (lambsquarters); assay: Greenhouse post-emergence efficacy (% visual injury) on lambsquarters; conditions: 20-22 d
Method: as §2, §3, §4, §5

[9] = test system: MATCH = Matricaria recutita (wild chamomile); assay: Greenhouse post-emergence efficacy (% visual injury) on wild chamomile; conditions: 20-22 d
Method: as §2, §3, §4, §5

[10] = test system: SINAR = Sinapis arvensis (wild mustard); assay: Greenhouse post-emergence efficacy (% visual injury) on wild mustard; conditions: 20-22 d
Method: as §2, §3, §4, §5

[11] = safener 20 g ai/ha alone, 20-22 d
[12] = safener 40 g ai/ha alone, 20-22 d
[13] = safener 80 g ai/ha alone, 20-22 d
[14] = herbicide 20 g ae/ha alone, 20-22 d

O=C1OC(=O)c2cccc3cccc1c23 [naphthalic anhydride]
Effect (% visual injury) TRZAW Obs ([1]; in vivo): 0%
Effect (% visual injury) HORVS Obs ([2]; in vivo): 0%

C=CCN(CC=C)C(=O)C(Cl)Cl [dichlormid, N,N-diallyl-2,2-dichloroacetamide]
Effect (% visual injury) TRZAW Obs [1, 11]: 0%
Effect (% visual injury) TRZAW Obs [1, 12]: 0%
Effect (% visual injury) TRZAW Obs [1, 13]: 0%
Effect (% visual injury) HORVS Obs [2, 11]: 0%
Effect (% visual injury) HORVS Obs [2, 12]: 0%
Effect (% visual injury) HORVS Obs [2, 13]: 0%

CC1COc2ccccc2N1C(=O)C(Cl)Cl (racemic) [benoxacor, (±)-4-(dichloroacetyl)-3,4-dihydro-3-methyl-2H-1,4-benzoxazine]
Effect (% visual injury) TRZAW Obs ([1]; in vivo): 0%
Effect (% visual injury) HORVS Obs ([2]; in vivo): 0%

NC(=O)NS(=O)(=O)c1ccccc1Cl [2-CBSU, N-(aminocarbonyl)-2-chlorobenzenesulfonamide]
Effect (% visual injury) TRZAW Obs ([1]; in vivo): 0%
Effect (% visual injury) HORVS Obs ([2]; in vivo): 0%

Clc1cc(Cl)nc(-c2ccccc2)n1 [fenclorim, 4,6-dichloro-2-phenylpyrimidine]
Effect (% visual injury) TRZAW Obs ([1]; in vivo): 0%
Effect (% visual injury) HORVS Obs ([2]; in vivo): 0%

CCOC(=O)C1=NN(c2ccc(Cl)cc2Cl)C(C)(C(=O)OCC)C1 (racemic) [mefenpyr-diethyl, (RS)-1-(2,4-dichlorophenyl)-5-methyl-2-pyrazoline-3,5-dicarboxylate]
Effect (% visual injury) AMARE Obs ([3]; safener 20 g ai/ha alone): 0%
Effect (% visual injury) AMARE Obs ([3]; safener 40 g ai/ha alone): 0%
Effect (% visual injury) AMARE Obs ([3]; safener 80 g ai/ha alone): 0%
Effect (% visual injury) CIRAR Obs ([4]; safener 20 g ai/ha alone): 0%
Effect (% visual injury) CIRAR Obs ([4]; safener 40 g ai/ha alone): 0%
Effect (% visual injury) CIRAR Obs ([4]; safener 80 g ai/ha alone): 0%
Effect (% visual injury) TRZAW Obs [1, 11]: 0%
Effect (% visual injury) TRZAW Obs [1, 12]: 0%
Effect (% visual injury) TRZAW Obs [1, 13]: 0%
Effect (% visual injury) CAPBP Obs ([5]; safener 20 g ai/ha alone): 0%
Effect (% visual injury) CAPBP Obs ([5]; safener 40 g ai/ha alone): 0%
Effect (% visual injury) CAPBP Obs ([5]; safener 80 g ai/ha alone): 0%
Effect (% visual injury) VIOTR Obs ([6]; safener 20 g ai/ha alone): 0%
Effect (% visual injury) VIOTR Obs ([6]; safener 40 g ai/ha alone): 0%
Effect (% visual injury) VIOTR Obs ([6]; safener 80 g ai/ha alone): 0%
Effect (% visual injury) HORVS Obs [2, 11]: 0%
Effect (% visual injury) HORVS Obs [2, 12]: 0%
Effect (% visual injury) HORVS Obs [2, 13]: 0%
Effect (% visual injury) KCHSC Obs ([7]; safener 20 g ai/ha alone): 0%
Effect (% visual injury) KCHSC Obs ([7]; safener 40 g ai/ha alone): 0%
Effect (% visual injury) KCHSC Obs ([7]; safener 80 g ai/ha alone): 0%
Effect (% visual injury) CHEAL Obs ([8]; safener 20 g ai/ha alone): 0%
Effect (% visual injury) CHEAL Obs ([8]; safener 40 g ai/ha alone): 0%
Effect (% visual injury) CHEAL Obs ([8]; safener 80 g ai/ha alone): 0%
Effect (% visual injury) MATCH Obs ([9]; safener 20 g ai/ha alone): 0%
Effect (% visual injury) MATCH Obs ([9]; safener 40 g ai/ha alone): 0%
Effect (% visual injury) MATCH Obs ([9]; safener 80 g ai/ha alone): 0%
Effect (% visual injury) SINAR Obs ([10]; safener 20 g ai/ha alone): 0%
Effect (% visual injury) SINAR Obs ([10]; safener 40 g ai/ha alone): 0%
Effect (% visual injury) SINAR Obs ([10]; safener 80 g ai/ha alone): 0%

CCc1nc(C(=O)O)c(Cl)c(N)c1F [I-G-A]
Effect (% visual injury) AMARE Obs ([3]; herbicide 20 g ae/ha alone): 20%
Effect (% visual injury) CIRAR Obs ([4]; herbicide 20 g ae/ha alone): 80%
Effect (% visual injury) TRZAW Obs [1, 14]: 25%
Effect (% visual injury) CAPBP Obs ([5]; herbicide 20 g ae/ha alone): 100%
Effect (% visual injury) VIOTR Obs ([6]; herbicide 20 g ae/ha alone): 60%
Effect (% visual injury) HORVS Obs [2, 14]: 13%
Effect (% visual injury) KCHSC Obs ([7]; herbicide 20 g ae/ha alone): 20%
Effect (% visual injury) CHEAL Obs ([8]; herbicide 20 g ae/ha alone): 95%
Effect (% visual injury) MATCH Obs ([9]; herbicide 20 g ae/ha alone): 80%
Effect (% visual injury) SINAR Obs ([10]; herbicide 20 g ae/ha alone): 97%

O=C(O)c1nc(C(Cl)(Cl)Cl)n(-c2ccc(Cl)cc2Cl)n1 [fenchlorazole, 1-(2,4-dichlorophenyl)-5-(trichloromethyl)-1H-1,2,4-triazole-3-carboxylic acid]
Effect (% visual injury) TRZAW Obs [1, 11]: 0%
Effect (% visual injury) TRZAW Obs [1, 12]: 0%
Effect (% visual injury) TRZAW Obs [1, 13]: 0%
Effect (% visual injury) HORVS Obs [2, 11]: 0%
Effect (% visual injury) HORVS Obs [2, 12]: 0%
Effect (% visual injury) HORVS Obs [2, 13]: 0%
